The text below walks through data of patent US20020142347A1, “Biosensor” (BIOSENSOR ApS, priority 2000, published 2002).

Assay [1] concerns the target T1, native bovine ACBP (Bos taurus, UniProt P07107).
T1 sequence (P07107 1-87): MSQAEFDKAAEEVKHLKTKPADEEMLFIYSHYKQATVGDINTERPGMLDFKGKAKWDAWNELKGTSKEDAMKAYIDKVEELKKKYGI
The following applies: isothermal titration microcalorimetry, >0.1 M salt; literature; read-out: KD for binding to native bovine ACBP; cited from earlier work. For orientation: ITC needs no label: the signal is the heat of the interaction.

The target of assay [2] is T2, FACI-24 (Bos taurus, UniProt P07107, M25C).
T2 construct: made in house; host or cells: E. coli BL21(DE3)pLysS, pET3a vector
T2 sequence (P07107 2-87 M25C): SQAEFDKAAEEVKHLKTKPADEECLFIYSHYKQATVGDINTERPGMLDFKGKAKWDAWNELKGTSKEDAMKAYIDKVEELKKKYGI
The assay can be described thus: Fluorescence titration equilibrium binding analysis of CoA and acyl-CoA esters to FACI-24. On the set-up: species or system bovine. The following applies: FACI-24 (1.5 μM) titrated with increasing CoA and acyl-CoA concentration; fitted binding curves, emission 460 nm; read-out: Kd (nM) ± S.E. On the procedure:
Development of a mathematical expression describing the relationship between acyl-CoA concentration and FACI-24 fluorescence was performed essentially as by Richieri et al 1992, J Biol Chem, 267:23495-23501. However, where ligand binding to ADIFAB induces both a fluorescence intensity increase around 505 nm and a fluorescence intensity decrease around 432 nm, ligand binding to FACI-24 only causes an increase in fluorescence around 460 nm.
Derivatisation of an expression for the fluorescence value as a function of the acyl-coA concentration was done using the Scatchard equation as a starting point: [formula]
which has been used to fit the titration data.
The curves represent the best fit analysis from two independent experiment calculated and normalized as described above. The FACI-24 binding affinity increases dramatically when the acyl-chain length increases from C8 to C10 and C12, a smaller but significant drop in Kd is seen by increasing chain length from C12 to C14. C14 to C18 saturated acyl-CoA esters and C18:1-CoA binds with similar and very high affinities to FACI-24. In >0.1 M salt, FACI-24 binds acyl-CoAs with higher affinity and similar specificity as native unmodified bovine ACBP. The Kd for binding of C12-CoA and C16-CoA to native ACBP is 40 and 2.0 nM, respectively (Fulcery et al Biochemical, 1997, 325:423-428; Færgeman et al 1996, Biochemistry, 35:14118-14126). FACI-24 is highly specific for binding long-chain acyl-CoA esters.
Titration of FACI with acyl-CoAs was done using a SPEX FLOUROLOG (Industries Inc, Edison N.J., USA) with excitation at 387 nm and emission at 460 nm, with both excitation and emission slits set to 4.5 nm. FACI (0.5-4.5 uM, as indicated) was dissolved in 1.5 ml binding buffer (10 mM HEPES 150 mM NaCl, 5 mM KCl, 1 mM Na2HPO4, pH 7.4) and titrated with a 10 μM acyl-CoA dissolved in binding buffer, with or without FACI added, as indicated. Fluorescence emission values (counts per second) measured without FACI added to the ligand stock solution were corrected for titrand dilution.
Up to four parameters were fitted in this way, these were B, representing the point of saturation on the X axis, H, representing the maximum fluorescence, i.e. the fluorescence at saturating concentration of acyl-CoA, L, the minimum fluorescence value, i.e. the fluorescence of FACI-24 alone in buffer, and K, the Kd value lor the acyl-CoA in question. Initial estimates for the fittable parameters were typically: B=1, H=maximum fluorescence value measured, L=minimum fluorescence value measured (at acyl-CoA-concentration=0), and K as judged from the raw data, typically from 0.0001 uM to 0.1 uM for acyl-CoA longer than C10:0-CoA.
For each acyl-CoA at least two titrations and fittings were performed. To consider two or more titrations of the same acyl-CoA together and obtain a Kd value using all these titrations, both axes of the raw data were standardised using the fitted values of B, H and L in this way:
X axis standard=(raw X axis values)/Bfitted
Y axis standard=[(raw Y axis values)−Lfitted]/[Hfitted−Lfitted]
In this way all Y axis values should come to lie between 0 and 1 and the X axis value should be 1 at the point of saturation (FACI-24:acyl-CoA 1:1). Such adjusted data were pooled and fitted using DataFit. Typically, both H and B fitted to values close to 1 and L fitted to values close to 0. K was typically fitted to values somewhere between the two values obtained for the raw data.
This could be overcome by removing B from the fittable parameters list and instead setting it to a constant value of 1 and fitting again. This was typically done for both the raw and the standardised data.

Assay [3] addresses T3, FACI53 (Bos taurus, UniProt P07107, A54C).
T3 construct: badan (6-bromoacetyl-2-dimethylaminonaphthalene) fluorophore on the introduced Cys-53; made in house; host or cells: E. coli BL21(DE3)pLysS, pET3a vector
T3 sequence (P07107 2-87 A54C): T2 sequence (P07107 2-87 M25C) with C24M, A53C
The assay can be described thus: Isothermal titration calorimetry of acyl-CoA binding to FACI53. Also noted: species or system bovine. On the procedure:
Reference is made to FIG. 2. and FIG. 3. which depict the emission spectra of FACI24 and FACI53 titrated with increasing concentrations of CoA, C4-, C8-, C12-, C16- and C20-CoA esters. The addition of ligand and measurement of emission of FACI24 and FACI53 was performed as described in example 2. The increased addition of ligand to the mutated and modified proteins caused a proportional spectral change. The normal physiological binding profile was confirmed by direct binding studies using isoelectrical focusing as predicted in FIG. 4. […] The results clearly indicate that fluorescence emission at 470 nm may provide a measure for the concentration of free unbound long-chain(>C12)-acyl-CoA ester.
Quantitative determination of binding affinities (KD) were performed by isothermal titration micro calorimetry as previously described (Faergeman et. al., 1996; Biochemistry 35, 14118-14126). Qualitative evaluation of relative binding affinities were determined by isoelectrical focusing using the Pharmacia Fast Gel system according to the prescriptions given by the manufacture. […] The fluorescence emission was measured on a SPEX FLOUROLOG (Industries Inc, Edison N.J., USA) with excitation at 400 nm and emission scan from 400 nm to 550 nm. […]

Where a chain is given by its changes, count along the chain named.

Usually Kd stands for a measure of binding affinity in units of concentration. Take `CCCCCCCCCCCCCCCC(=O)SCCNC(=O)CCNC(=O)[C@H](O)C(C)(C)COP(=O)(O)OP(=O)(O)OC[C@H]1O[C@@H](n2cnc3c(N)ncnc32)[C@H](O)[C@@H]1OP(=O)(O)O` [C16:0-CoA, palmitoyl-CoA]: the Kd in assay [1] is 2 nM; in assay [2] it was 0.65 ± 0.26 nM. In addition, the “Binding to FACI53 by isothermal titration calorimetry” value in assay [3] was “binding was confirmed”.
